Data taken from US4088772A, “Methanodibenzocycloheptapyrroles” (E. I. Du Pont de Nemours and Company, priority 1975, dated 1978).
Counter-ions that a name gives are not always drawn. Like-named read-outs stand apart in the source and are kept apart here.

What was measured:
female white mice = assay: animal or person; settings: Mus musculus, po, oral, mice
Procedure: (§1) Groups of five Carworth CF1 S female mice, 16-20 g each, were fasted 16-22 hours before use. The mice were put in opaque plastic "shoe-box" cages 15-30 min. before injection, and then treated orally with 4, 12, 36, 108 and 324 mg/kg of the compound to be tested as a 13 mg/ml solution in 1% aqueous distilled water solution of methylcellulose (Methocel®). Each dose was given in a standard volume of 0.45 ml. Observations were made at 0.5, 2 and 24 hours after dosing. ED50 values were calculated for each parameter including death (LD50). The ED50 and LD50 values are the doses at which 50% of the naimals would be expected to respond.
(§2) The mouse is placed on a stainless steel wire mesh screen (8 × 12 inches, 3 mesh per inch, 1/4 inch mesh openings) "shoe-box" lid (1 inch high) and is observed for normal activities, such as nose movements, head movements with apparent visual examination of the area, and/or walking around on the screen. Absence of or marked depression of these activities for 5 seconds constitutes loss of exploratory activity.
(§3) The mouse is picked up by the tail and placed on the screen with its head facing the observer. Bilateral eyelid closure of 50% or more two seconds after placement is considered ptosis.
(§4) The mouse is placed with its front paws on the edge of a stainless steel "shoe-box" cover, 1 inch high, covered with adhesive tape. Failure to remove both paws from the cover's edge within 5 seconds constitutes catatonia.
(§5) The observer gently strokes the abdominal musculature of the mouse with thumb and forefinger. Flaccidity (or rarely, tenseness) is recorded.
(§6) The mouse is gently swung by the tail toward a horizontal 12 gauge wire tautly stretched 25 cm above the bench. After the mouse grasps the wire with its forepaws, its posterior end is held directly below the wire. A normal mouse grasps the wire with its forepaws and immediately lifts its hind limbs to the wire. Failure to grasp the wire with the forepaws in both trials constitutes loss of the grip reflex; failure to lift the hind limbs to grasp the wire with at least one hind paw within 5 seconds constitutes loss of the lift reflex.
(§7) The mouse is placed on the bar 10-20 cm horizontally and 9 cm vertically from a Galton whistle adjusted for 13 kc (5 mm on the whistle scale) and is subjected to several short bursts of sound.
(§8) An effective tranquilizer should induce little or no tremor response. […] Tremors include fine or coarse and intermittent or continuous tremors.

in vivo = settings: mouse, in vivo, po
Procedure: as §1, §2, §3, §4, §5, §6, §7, §8

[1] = system: phenylquinone-induced writhing; assay: Phenylquinone writhing test (analgesia); type: in vivo, mouse (Carworth CF1 S female); settings: Mus musculus
Description: This mouse test is predictive of analgesic response in humans. [E. Siegmund, R. Cadmus and G. Lee, Proc. Soc.
ED50 values were obtained graphically from the data.

[2] = read-out: Catatonia ED50, Table 1
[3] = read-out: Exploratory Loss Visual ED50, Table 1
[4] = read-out: Muscle Tone ED50, Table 1
[5] = read-out: Reflexes Grip ED50, Table 1
[6] = read-out: Reflexes Lift ED50, Table 1
[7] = read-out: Reflexes Pinna ED50, Table 1
[8] = read-out: Catatonia ED50, Table III
[9] = read-out: Exploratory Loss Visual ED50, Table III
[10] = read-out: Muscle Tone ED50, Table III
[11] = read-out: Ptosis ED50, Table III
[12] = read-out: Reflexes Grip ED50, Table III
[13] = read-out: Reflexes Lift ED50, Table III
[14] = read-out: Reflexes Pinna ED50, Table III

SMILES	ED50 (female white mice; [2])	ED50 (female white mice; [3])	ED50 (female white mice; [4])	ED50 (female white mice; read-out: Ptosis ED50, Table 1)	ED50 (female white mice; [5])	ED50 (female white mice; [6])	ED50 (female white mice; [7])	ED50 (in vivo)	LD50 at 24 h (in vivo)	ED50 ([1]; po, Table 1, mice)	ED50 (female white mice; [8])	ED50 (female white mice; [9])	ED50 (female white mice; [10])	ED50 (female white mice; [11])	ED50 (female white mice; [12])	ED50 (female white mice; [13])	ED50 (female white mice; [14])	ED50 ([1]; po, Table III, mice)	ED50 (in vivo; Tremors ED50, Table 1, mice)	ED50 ([1]; Table 1, oral, mice)
C1=CC(CCN2CC3c4ccccc4C4CC3(C2)c2ccccc24)CC1 (centres unmarked) [Example 23, 2-(2-Cyclopent-2-enylethyl)-2,3,8,12b-tetrahydro-1H-3a,8-methanodibenzo[3,4:6,7]cyclohepta[1,2-c]pyrrole]	37 mg/kg	57 mg/kg	37 mg/kg	46 mg/kg	265 mg/kg	88 mg/kg	62 mg/kg	> 324 mg/kg	> 324 mg/kg	15 mg/kg	–	–	–	–	–	–	–	–	–	–
CC(=O)Nc1ccc2c(c1)[C@]13C[C@H]2c2ccccc2[C@H]1CN(CC1CCCC1)C3 (relative stereo) [Example 65, 5-Acetamido-2-cyclopentylmethyl-2,3,8,12b-tetrahydro1H-3a,8-methanodibenzo[3,4:6,7]cyclohepta[1,2-c]pyrrole Hydrochloride]	–	–	–	–	–	–	–	–	300 mg/kg	–	60 mg/kg	200 mg/kg	60 mg/kg	7 mg/kg	> 324 mg/kg	60 mg/kg	36 mg/kg	18 mg/kg	–	–
CC1CCC(CN2C[C@@H]3c4ccccc4[C@@H]4C[C@@]3(C2)c2ccccc24)C1 (some centres unmarked) [Example 52, 2-(3-Methylcyclopentylmethyl)-2,3,8,12b-tetrahydro-1H-3a,8-methanodibenzo[3,4:6,7]cyclohepta[1,2-c]-pyrrole]	12 mg/kg	12 mg/kg	12 mg/kg	7 mg/kg	200 mg/kg	12 mg/kg	7 mg/kg	> 324 mg/kg	> 324 mg/kg	5 mg/kg	–	–	–	–	–	–	–	–	–	–
C1=C(CN2CC3c4ccccc4C4CC3(C2)c2ccccc24)CCC1 (centres unmarked) [Example 21, 2-(1-Cyclopentenylmethyl)-2,3,8,12b-tetrahydro-1H-3a,8-methanodibenzo[3,4:6,7]cyclohepta[1,2-c]pyrrole]	20 mg/kg	7 mg/kg	36 mg/kg	7 mg/kg	300 mg/kg	36 mg/kg	20 mg/kg	> 324 mg/kg	> 324 mg/kg	2.9 mg/kg	–	–	–	–	–	–	–	–	–	–
CC(=NO)c1ccc2c(c1)[C@]13C[C@H]2c2ccccc2[C@H]1CN(CC1CCCC1)C3 (relative stereo) [Example 71, 5-Acetyl-2-cyclopentylmethyl-2,3,8,12b-tetrahydro-1H-3a,8-methanodibenzo[3,4:6,7]cyclohepta[1,2-c]pyrrole Oxime Hydrochloride]	–	–	–	–	–	–	–	–	> 324 mg/kg	–	100 mg/kg	7 mg/kg	36 mg/kg	< 4 mg/kg	300 mg/kg	60 mg/kg	20 mg/kg	21 mg/kg	–	–
C=CCN1CC2c3ccccc3C3CC2(C1)c1ccccc13 (centres unmarked) [Example 10, 2-Allyl-2,3,8,12b-tetrahydro-1H-3a,8-methanodibenzo-[3,4:6,7]cyclohepta[1,2-c]pyrrole]	5 mg/kg	4.5 mg/kg	3.2 mg/kg	< 3 mg/kg	150 mg/kg	6 mg/kg	4 mg/kg	–	> 324 mg/kg	–	–	–	–	–	–	–	–	–	187 mg/kg	1.9 mg/kg
COCCN1C[C@@H]2c3ccccc3[C@@H]3C[C@@]2(C1)c1ccccc13 (relative stereo) [Example 41, 2-(2-Methoxyethyl)-2,3,8,12b-tetrahydro-1H-3a,8-methanodibenzo[3,4:6,7]cyclohepta[1,2-c]pyrrole]	20 mg/kg	20 mg/kg	36 mg/kg	20 mg/kg	200 mg/kg	36 mg/kg	20 mg/kg	> 324 mg/kg	300 mg/kg	4.2 mg/kg	–	–	–	–	–	–	–	–	–	–
